Counter-ions that a name gives are not always drawn. Residues, ends and D or L forms follow the SMILES beside them. *: point of attachment. Cbz = O=C(OCc1ccccc1)*; CH2F = FC*
Assays:
[1] = tested on: human glioblastoma cell line A172; assay: Induction of apoptosis in A172 glioblastoma cells, flow cytometry; type: cell-based
[2] = tested on: human lymphoblastic leukaemia T-cell line CEM; assay: Induction of apoptosis in CEM cells, flow cytometry (hypodiploid DNA); type: cell-based; conditions: 30, 20, 15, 10 μM methadone, 24 h and 48 h
[3] = tested on: CD95-resistant leukaemia cells CEM^CD95R; assay: Western blot analysis in CEM^CD95R cells; type: cell-based, human; conditions: 20, 15 μM methadone, 24 h and 48 h
[4] = tested on: doxorubicin-resistant leukaemia cells CEM^DoxoR; assay: Western blot analysis in CEM^DoxoR cells; type: cell-based, human; conditions: 20, 15 μM methadone, 24 h and 48 h
[5] = tested on: human myeloid leukaemia cell line HL-60; assay: Induction of apoptosis in HL-60 cells, flow cytometry (hypodiploid DNA); type: cell-based; conditions: 30, 20, 15, 10 μM methadone, 24 h and 48 h
HL-60 leukaemia cells = assay: Western blot analysis in HL-60 cells; type: cell-based, human; conditions: 20, 15 μM methadone, 24 h and 48 h
[6] = tested on: B-ALL (B-Cell lymphatic leukaemia) cells; assay: Induction of apoptosis in B-ALL cells isolated from patients ex vivo; type: cell-based, human; conditions: B-ALL patient cells; 10 μM methadone; 72 h
[7] = tested on: doxorubicin-resistant CEM leukaemia cells (CEM^DoxoR); assay: Induction of apoptosis in doxorubicin-resistant CEM cells; type: cell-based, human; conditions: 30, 20, 15 μM methadone, 24 h and 48 h
leukaemia cells = assay: Western blot analysis in leukaemia cells (caspase-8, Bax, CD95); type: cell-based, human
Source text: Western blot analyses were done as described (Friesen et al. 2004, Friesen et al. 2003). Immunodetection of PARP, caspase-3, caspase-9, caspase-8, XIAP, CD95, CD95-L, Bax, Bcl-xL and β-actin was done using rabbit anti-PARP polyclonal antibody (1:5000, Roche), mouse-anti-caspase-3 monoclonal antibody (1:1000, Cell-Signalling), mouse-anti-caspase-8 monoclonal antibody (1:1000, Cell-Signalling), rabbit- anti-active-caspase-9 polyclonal antibody (1:1000, Cell-Signalling), mouse-anti-XIAP monoclonal antibody (1:1000, Transduction-Laboratories, Lexington, Ky.), mouse-anti-Fas (anti-CD95) monoclonal antibody (1:1000, Transduction-Laboratories), mouse-anti-Fas ligand (anti-CD95-ligand) monoclonal antibody (1:250, BD, Pharmingen), rabbit-anti-Bax polyclonal antibody (1:250, Oncogene, Cambridge), rabbit-anti-Bcl-XS/L. polyclonal antibody (1:1000, Santa-Cruz-Biotechnology, Santa-Cruz, Calif.), rabbit-anti-p21 polyclonal antibody (1:1000, Santa-Cruz), and mouse anti-β-actin monoclonal antibody (Sigma). Peroxidase-conjugated goat-anti-mouse IgG or peroxidase-conjugated goat-anti-rabbit IgG (1:5000, Santa-Cruz) as secondary antibody were used for the enhanced chemoluminescence system (ECL, Amersham-Pharmacia, Freiburg, Germany). Equal protein loading was controlled by β-actin detection.

CEM leukaemia cells = assay: Western blot analysis in CEM cells; type: cell-based, human; conditions: 20, 15 μM methadone, 24 h and 48 h
[8] = tested on: CD95-resistant leukaemia cells CEM^CD95R; assay: Induction of apoptosis in CD95-resistant CEM cells; type: cell-based, human; conditions: 30, 20, 15 μM methadone, 24 h and 48 h
[9] = tested on: Human acute myeloid leukaemia HL-60 cell line; assay: Induction of apoptosis in HL-60 cell line (5000 cells/100 μl), long incubation, flow cytometry; type: cell-based
HL-60 cells = assay: Inhibition of methadone induced apoptosis by zVAD.fmk in HL-60 cells; type: cell-based, human; conditions: 50 μM zVAD.fmk, preincubated 1 h before methadone
CEM cells = assay: Inhibition of methadone induced apoptosis by zVAD.fmk in CEM cells; type: cell-based, human; conditions: 50 μM zVAD.fmk, preincubated 1 h before methadone
[10] = 1 μg/mL methadone in addition of 0.1 μg/mL doxorubicin, 72 h
[11] = leukaemia cells after methadone treatment

CCC(=O)C(CC(C)N(C)C)(c1ccccc1)c1ccccc1 (racemic) [methadone, D, L-methadone hydrochloride]
apoptotic effect of the combination with doxorubicin [1, 10]: strong apoptotic effect | synergy with doxorubicin [1, 10]: synergistic effects | dead cells (specific cell death) ([1]; 20 μg/mL methadone, 120 h): more than 20% | dead cells (specific cell death) ([1]; 20 μg/mL methadone, 168 h): more than 80% | dead cells (specific cell death) ([1]; 30 μg/mL methadone, 120 h): more than 85% | dead cells (specific cell death) ([1]; 30 μg/mL methadone, 168 h): ~100% | induction of apoptosis [2]: strong induction of apoptosis | down regulation of Bcl-xL [3]: strong down regulation | down regulation of XIAP [3]: strong down regulation | down regulation of Bcl-xL [4]: strong down regulation | down regulation of XIAP [4]: strong down regulation | induction of apoptosis [5]: strong induction of apoptosis | down regulation of Bcl-xL (HL-60 leukaemia cells): strong down regulation | down regulation of XIAP (HL-60 leukaemia cells): strong down regulation | apoptosis, cells [6]: over 80% | induction of apoptosis [7]: strong induction of apoptosis | Activation of caspase-8 (leukaemia cells; [11]): not found | Up regulation of Bax (leukaemia cells; [11]): not found | up regulation of death-inducing ligands and death-inducing receptors such as CD95 (leukaemia cells; leukaemia cells after methadone treatment (data not shown)): not found | down regulation of Bcl-xL (CEM leukaemia cells): strong down regulation | down regulation of XIAP (CEM leukaemia cells): strong down regulation | induction of apoptosis [8]: strong induction of apoptosis

CN1CC[C@]23c4c5ccc(O)c4O[C@H]2[C@@H](O)C=C[C@H]3[C@H]1C5 [morphine, Morphine]
apoptosis, cells ([9]; HL-60, first study, 40 μg/mL morphine, 144 h): 40% | apoptosis, cells ([9]; HL-60, second study, 1 μg/mL morphine, 168 h): more than 50% | apoptosis, cells ([9]; HL-60, third study, 1 μg/mL morphine in combination with 0.001 μg/mL doxorubicin, 168 h): 50%

CC(C)[C@H](NC(=O)OCc1ccccc1)C(=O)N[C@@H](C)C(=O)N[C@@H](CC(=O)O)C(=O)CF [zVAD.fmk, benzoyl carbonyl-Val-Ala-Asp-fluoromethyl ketone] (Cbz-Val-Ala-Asp-CH2F)
inhibition of methadone-induced apoptosis (HL-60 cells): almost completely inhibited | inhibition of methadone-induced apoptosis (CEM cells): almost completely inhibited
